Read-outs that look alike come from different tables or passages of the source.
Key:
[1] = molecular target: S. lugdunensis agr-I (Staphylococcus lugdunensis, UniProt Q8VSW5); experiment: cell-based; conditions: fluorescent reporter strain; peptides tested at 1000, 50, 2.5, 0.125 nM or in dose-response
Description: (§1) Peptides were evaluated for the ability to interfere with agr-mediated quorum sensing in S. aureus (AH1677, AH430, AH1747, and AH1872 for agr-I–IV, respectively) ([40]) using reporter strains expressing yellow fluorescent protein (YFP) upon agr activation. Interference with agr-mediated quorum sensing in S. epidermidis (AH3408, AH3623, and AH3409 for agr-I–III, respectively) ([45]), and S. lugdunensis (AH4031 for agr-I) ([37]) was evaluated using reporter strains expressing superfolder green fluorescent protein (sGFP) upon agr activation. Overnight cultures of the reporter strains were grown in TSB medium containing chloramphenicol (CAM, 10 μg/mL for S. aureus) or erythromycin (ERM, 10 μg/mL of S. epidermidis and S. lugdunensis) and diluted 1:100 in fresh TSB medium containing the same antibiotic. Assays were performed in sterile black 96-well plates with a clear bottom. […] DMSO stock solutions of peptides (1 mM) were diluted in TSB media and added (15 μL) in technical triplicate to the 96-well plate, followed by diluted bacterial overnight cultures (135 μL). Control wells for 100% agr activity were wells replacing the peptide solution with TSB medium (15 μL). […] Wells containing 150 μL TSB medium were used to measure background fluorescence. The 96-well plates were incubated in a humidified incubator at 37°C shaking at 1,000 rpm for 22–24 h and fluorescence (for GFP: excitation 479 nm, emission 520 nm; for YFP: excitation 500 nm, emission 541 nm; automatic gain), and OD600 values were subsequently measured using a plate reader. Background fluorescence was subtracted from all wells and further normalized to the corresponding OD600 value of the respective wells. The average fluorescence of control wells was used as a relative measure for 100% activation of the agr-circuit, and bar graphs were generated using GraphPad Prism 10.4 software. All assays were performed in at least a biological duplicate.
(§2) Overnight cultures of the reporter strains were grown in TSB medium containing chloramphenicol (CAM, 10 μg/mL for S. aureus) or erythromycin (ERM, 10 μg/mL of S. epidermidis and S. lugdunensis) and diluted 1:100 in fresh TSB medium containing the same antibiotic. Assays were performed in sterile black 96-well plates with clear bottoms. Peptide solutions (15 μL) in 1:5 serial dilutions from DMSO stock solutions (1 mM) in TSB medium were added to the 96-well plate in technical duplicate followed by diluted bacterial overnight cultures (135 μL). Control wells for 100% agr activity were wells replacing the peptide solution with TSB medium (15 μL). Wells containing 150 μL TSB medium were used to measure background fluorescence. The 96-well plates were incubated in a humidified incubator at 37°C shaking at 1,000 rpm for 22–24 h and fluorescence (for GFP: excitation 479 nm, emission 520 nm; for YFP: excitation 500 nm, emission 541 nm; automatic gain), and OD600 values were subsequently measured using a plate reader. Background fluorescence was subtracted from all wells and further normalized to the corresponding OD600 value of the respective wells. The average fluorescence of control wells was used as a relative measure for 100% activation of the agr-circuit. Relative agr activity was plotted to obtain IC50 values by non-linear regression with variable slope using GraphPad Prism 10.4 software. All assays were performed in biological triplicate.

[2] = test system: S. aureus (SA) agr-I; conditions: fluorescence, cited from earlier work; for IC50: ref (13)
[3] = molecular target: T1, SA AgrC-IV (Staphylococcus aureus, UniProt Q309Z2); experiment: β-Lactamase assay, reporter strain RN10829 (P2-agrA:P3-blaZ) with pagrC-IV; type: cell-based; conditions: 100 nM cognate AIP; ± SEM; -b = no inhibition recorded at the highest AIP concentration tested; -a = only partial inhibition observed; this study (curves in Fig. S22)
From the text: (§3) The β-lactamase reporter strain RN10829 (P2-agrA:P3-blaZ) ([62]), with pagrC-I ([63]), pagrC-II, pagrC-III, or pagrC-IV ([11]), substituting the native agr locus with a chromosomal integration of P2-agrA and P3-blaZ and a plasmid from which a wild-type variant of the corresponding AgrC is expressed, was used to assess inhibition and activation of the AgrC receptor via β-lactamase activity in response to varying concentrations of the QS modulating peptides. Overnight cultures of the reporter strains in TSB medium were diluted 1:250 in fresh TSB medium and grown to OD600 = 0.35–0.40 (early exponential phase) at 37°C. Peptide solutions (10 μL) in 1:10 serial dilutions from DMSO stock solutions (1 mM) in TSB medium (final concentrations = 10 μM–10 pM) were added to each well of a clear 96-well plate as well as solutions (10 μL) of cognate AIP (final concentration = 100 nM) in TSB medium followed by 80 μL of bacterial cells. Control wells for 100% β-lactamase activity were wells replacing peptide solution with TSB media (10 μL), and control wells for 0% β-lactamase activity were wells replacing both peptide and cognate AIP solutions with TSB medium (20 μL). The 96-well plates were incubated at 37°C shaking at 200 rpm for 1 h and immediately frozen down at −80°C to minimize growth during nitrocefin treatment. Next, the 96-well plates were thawed, and OD600 values were determined using a plate reader followed by the addition of 50 μL of nitrocefin solution to the wells (final concentration = 33.3 μg/mL). β-Lactamase activity was monitored at OD486 every 20 s for 10 min at 37°C using a plate-reader. Linear nitrocefin conversion rates were plotted to obtain IC50 values by non-linear regression with variable slope using GraphPad Prism 10.4 software. Assays were performed at least as duplicate determinations in biological triplicate.

[4] = molecular target: T2, SA AgrC-III (Staphylococcus aureus, UniProt O33590); experiment: β-Lactamase assay, reporter strain RN10829 (P2-agrA:P3-blaZ) with pagrC-III; type: cell-based; conditions: 100 nM cognate AIP; ± SEM; -b = no inhibition recorded at the highest AIP concentration tested; -a = only partial inhibition observed; this study (curves in Fig. S21)
From the text: as §3

[5] = test system: S. epidermidis (SE) agr-II; conditions: fluorescence, cited from earlier work; for IC50: ref (13)
[6] = test system: S. aureus (SA) agr-III; conditions: fluorescence, cited from earlier work; for IC50: ref (13)
[7] = test system: S. epidermidis (SE) agr-III; conditions: fluorescence, cited from earlier work; for IC50: ref (13)
[8] = molecular target: T3, SA AgrC-II (Staphylococcus aureus, UniProt O33587); experiment: β-Lactamase assay, reporter strain RN10829 (P2-agrA:P3-blaZ) with pagrC-II; type: cell-based; conditions: 100 nM cognate AIP; ± SEM; -b = no inhibition recorded at the highest AIP concentration tested; -a = only partial inhibition observed; this study (curves in Fig. S20)
From the text: as §3

[9] = test system: S. aureus (SA) agr-IV; conditions: fluorescence, cited from earlier work; for IC50: ref (13)
[10] = test system: S. aureus (SA) agr-II; conditions: fluorescence, cited from earlier work; for IC50: ref (13)
[11] = test system: S. epidermidis (SE) agr-I; conditions: fluorescence, cited from earlier work
[12] = molecular target: T3, SA AgrC-II; conditions: 100 nM cognate AIP, ± SEM, -b = no inhibition recorded at the highest AIP concentration tested, determined previously, ref (1), cited from earlier work; for IC50: read-out: IC50, SA AgrC-II, b-lactamase assay
[13] = molecular target: T2, SA AgrC-III; conditions: 100 nM cognate AIP, ± SEM, determined previously, ref (1), cited from earlier work
[14] = molecular target: S. aureus agr-IV (Staphylococcus aureus, UniProt Q309Z2); experiment: cell-based; type: cell-based; conditions: fluorescent reporter strain; peptides tested at 1000, 50, 2.5, 0.125 nM or in dose-response
Description: as §1, §2

[15] = molecular target: T1, SA AgrC-IV; conditions: ± SEM, determined previously, ref (1), cited from earlier work; for EC50: read-out: EC50, SA AgrC-IV, b-lactamase assay; for IC50, SA AgrC-IV, b-lactamase assay: 100 nM cognate AIP, -b = no inhibition recorded at the highest AIP concentration tested
[16] = only partial inhibition observed, read-out: IC50, SA AgrC-III, b-lactamase assay, only partial inhibition observed (footnote a)
[17] = -b = no inhibition recorded at the highest AIP concentration tested

T3 sequence (O33587 entry or part of it): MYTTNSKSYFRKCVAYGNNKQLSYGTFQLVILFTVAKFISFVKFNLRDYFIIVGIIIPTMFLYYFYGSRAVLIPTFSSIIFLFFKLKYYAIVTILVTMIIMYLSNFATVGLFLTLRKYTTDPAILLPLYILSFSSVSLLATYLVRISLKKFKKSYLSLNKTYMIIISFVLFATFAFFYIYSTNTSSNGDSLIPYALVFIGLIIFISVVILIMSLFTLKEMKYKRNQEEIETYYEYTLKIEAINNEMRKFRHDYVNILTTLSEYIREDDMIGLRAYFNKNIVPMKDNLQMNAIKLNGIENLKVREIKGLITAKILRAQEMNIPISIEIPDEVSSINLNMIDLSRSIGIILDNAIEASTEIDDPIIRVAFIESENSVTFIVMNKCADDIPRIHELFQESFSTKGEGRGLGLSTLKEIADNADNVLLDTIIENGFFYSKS
T2 sequence (O33590 entry or part of it): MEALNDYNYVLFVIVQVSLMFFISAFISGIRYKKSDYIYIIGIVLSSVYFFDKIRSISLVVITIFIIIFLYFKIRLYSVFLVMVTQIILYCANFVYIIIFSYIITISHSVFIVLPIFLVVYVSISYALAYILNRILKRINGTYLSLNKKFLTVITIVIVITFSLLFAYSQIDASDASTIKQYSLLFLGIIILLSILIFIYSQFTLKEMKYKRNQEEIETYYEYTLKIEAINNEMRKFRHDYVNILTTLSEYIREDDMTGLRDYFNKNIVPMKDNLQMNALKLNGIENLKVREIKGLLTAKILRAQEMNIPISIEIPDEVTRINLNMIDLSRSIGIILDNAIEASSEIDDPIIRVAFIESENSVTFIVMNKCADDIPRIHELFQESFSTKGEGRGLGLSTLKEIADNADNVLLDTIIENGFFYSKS
T1 sequence (Q309Z2 entry or part of it): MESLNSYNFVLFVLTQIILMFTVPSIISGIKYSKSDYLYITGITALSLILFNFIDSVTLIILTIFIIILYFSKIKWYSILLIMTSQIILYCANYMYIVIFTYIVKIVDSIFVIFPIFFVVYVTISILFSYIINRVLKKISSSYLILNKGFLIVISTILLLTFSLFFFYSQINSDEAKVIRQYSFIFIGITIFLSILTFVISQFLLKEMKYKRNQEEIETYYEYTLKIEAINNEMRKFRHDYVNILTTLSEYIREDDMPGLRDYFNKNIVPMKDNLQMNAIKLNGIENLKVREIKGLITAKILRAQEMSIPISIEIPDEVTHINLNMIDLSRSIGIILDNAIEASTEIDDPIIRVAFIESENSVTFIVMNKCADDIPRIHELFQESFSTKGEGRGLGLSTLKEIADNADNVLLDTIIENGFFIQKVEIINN
Chain of S. lugdunensis agr-I (Q8VSW5 entry or part of it): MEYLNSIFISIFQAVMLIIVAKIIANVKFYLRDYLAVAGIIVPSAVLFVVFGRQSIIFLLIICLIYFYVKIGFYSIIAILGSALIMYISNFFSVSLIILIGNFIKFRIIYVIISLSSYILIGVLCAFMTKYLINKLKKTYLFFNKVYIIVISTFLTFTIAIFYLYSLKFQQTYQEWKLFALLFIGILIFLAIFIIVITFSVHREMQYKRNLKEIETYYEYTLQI
Chain of S. aureus agr-IV (Q309Z2 entry or part of it): as the sequence (Q309Z2 entry or part of it) above

**Q.** Which “QS interaction in words (inhibition / activation), S. lugdunensis agr-I” value [1] does the source give for “S. Simulans AIP-II/III N-Me2 [compound 56]” here?
**A.** remained highly potent

**Q.** Which results are given for S. epidermidis AIP-II [compound 6]?
**A.** inhibition at 100 nM, SA agr-I ([2]; at 100 nM, ref (11)): no inhibition; IC50, SA AgrC-IV, b-lactamase assay [3]: -b; IC50, SA AgrC-III, b-lactamase assay [4]: -b; effect at 10 µM, SE agr-II ([5]; at 10 µM, ref (11)): activation; effect from supernatant (% inhibition, activation or no effect), SE agr-II ([5]; from supernatant, ref (18)): activation; inhibition at 100 nM, SA agr-III ([6]; at 100 nM, ref (11)): no inhibition; effect at 10 µM, SE agr-III ([7]; at 10 µM, ref (11)): no effect; effect from supernatant (% inhibition, activation or no effect), SE agr-III ([7]; from supernatant, ref (18)): no effect; IC50, SA AgrC-II, b-lactamase assay [8]: -b; inhibition at 100 nM, SA agr-IV ([9]; at 100 nM, ref (11)): no inhibition; inhibition at 100 nM, SA agr-II ([10]; at 100 nM, ref (11)): no inhibition; effect from supernatant (% inhibition, activation or no effect), SE agr-I ([11]; from supernatant, ref (18)): ~ 90%; IC50 ([11]; ref (11)): 0.00964 µM

**Q.** Which “IC50, SA AgrC-II, b-lactamase assay” value [12] does the source give for S. haemolyticus AIP-I [compound 15] here?
**A.** -b

**Q.** What about the IC50 ([13]; -b = no inhibition recorded at the highest AIP concentration tested, read-out: IC50, SA AgrC-III, b-lactamase assay) of the same substance?
**A.** 0.34 ± 0.091 µM

**Q.** Which IC50 [2] does the source give for S. hominis AIP-II [compound 11] here?
**A.** 0.015 µM

**Q.** What about the IC50 [5] of the same substance?
**A.** 0.019 µM

**Q.** What about the IC50 [6] of the same substance?
**A.** 0.003 µM

**Q.** What about the IC50 [7] of the same substance?
**A.** 0.062 µM

**Q.** What about the IC50 [9] of the same substance?
**A.** 1.13 µM

**Q.** What about the IC50 [10] of the same substance?
**A.** 2.11 µM

**Q.** And the IC50 ([11]; ref (13))?
**A.** 0.02 µM

**Q.** With S. hominis AIP-III [compound 12] as the substance, how does the “QS interaction in words (inhibition / activation), S. aureus agr-IV” value [14] read?
**A.** activated

**Q.** What about the IC50 [2] of the same substance?
**A.** 0.011 µM

**Q.** And the IC50 [5]?
**A.** 0.003 µM

**Q.** What about the IC50 [12] of the same substance?
**A.** 0.58 ± 0.061 µM

**Q.** What about the IC50 [6] of the same substance?
**A.** 0.006 µM

**Q.** And the IC50 [7]?
**A.** 0.003 µM

**Q.** And the IC50 [13, 16]?
**A.** 0.22 ± 0.046 µM

**Q.** And the EC50 [15]?
**A.** 0.054 ± 0.005 µM

**Q.** What about the IC50 [10] of the same substance?
**A.** 0.004 µM

**Q.** What about the IC50 ([11]; ref (13)) of the same substance?
**A.** 0.004 µM

**Q.** For S. hominis AIP-IV [compound 13], which IC50 [2] is on record?
**A.** 0.128 µM

**Q.** And the IC50 [5]?
**A.** 0.093 µM

**Q.** What about the IC50 [6] of the same substance?
**A.** 0.037 µM

**Q.** What about the IC50 [7] of the same substance?
**A.** 0.028 µM

**Q.** And the IC50 [10]?
**A.** 0.14 µM

**Q.** And the IC50 ([11]; ref (13))?
**A.** 0.237 µM

**Q.** Which IC50 [2] does the source give for S. hominis AIP-V [compound 14] here?
**A.** 0.043 µM

**Q.** What about the IC50 [5] of the same substance?
**A.** 0.022 µM

**Q.** And the IC50 [6]?
**A.** 0.004 µM

**Q.** And the IC50 [7]?
**A.** 0.002 µM

**Q.** What about the IC50 [9] of the same substance?
**A.** 3.81 µM

**Q.** What about the IC50 [10] of the same substance?
**A.** 0.059 µM

**Q.** What about the IC50 ([11]; ref (13)) of the same substance?
**A.** 0.01 µM

**Q.** What does the source list for S. lugdunensis AIP-II [compound 9]?
**A.** IC50, SA AgrC-II, b-lactamase assay [12]: -b; IC50, SA AgrC-III, b-lactamase assay [13, 17]: -b; IC50, SA AgrC-IV, b-lactamase assay [15]: -b

**Q.** For S. saprophyticus AIP-I [compound 19], which “IC50, SA AgrC-III, b-lactamase assay” value [13, 17] is on record?
**A.** -b

**Q.** What about the “IC50, SA AgrC-IV, b-lactamase assay” value [15] of the same substance?
**A.** -b

**Q.** Which results are given for S. schleiferi AIP-I [compound 30]?
**A.** IC50 [12]: 0.086 ± 0.006 µM; IC50 [13, 16]: 0.08 ± 0.016 µM; EC50 [15]: 0.031 ± 0.006 µM
